Reference: patent US20160045486A1, “DOPAMINE RECEPTOR LIGANDS WITH ENHANCED DURATION OF ACTION” (priority 2008, published 2016)
Where a name gives a salt, the structure may show the parent alone. Read-outs that look alike come from different tables or passages of the source.

Assays:
[1] = molecular target: T1, cloned hD1 receptors expressed in Ltk cells (Homo sapiens, UniProt P21728); assay: Dopamine D1 agonist activity, activation of adenylate cyclase; format: cell-based; details: FIG. 2, compared to dihydrexidine
T1 construct: expressed in transfected cells; host or cells: Ltk cells
T1 sequence (P21728 whole entry): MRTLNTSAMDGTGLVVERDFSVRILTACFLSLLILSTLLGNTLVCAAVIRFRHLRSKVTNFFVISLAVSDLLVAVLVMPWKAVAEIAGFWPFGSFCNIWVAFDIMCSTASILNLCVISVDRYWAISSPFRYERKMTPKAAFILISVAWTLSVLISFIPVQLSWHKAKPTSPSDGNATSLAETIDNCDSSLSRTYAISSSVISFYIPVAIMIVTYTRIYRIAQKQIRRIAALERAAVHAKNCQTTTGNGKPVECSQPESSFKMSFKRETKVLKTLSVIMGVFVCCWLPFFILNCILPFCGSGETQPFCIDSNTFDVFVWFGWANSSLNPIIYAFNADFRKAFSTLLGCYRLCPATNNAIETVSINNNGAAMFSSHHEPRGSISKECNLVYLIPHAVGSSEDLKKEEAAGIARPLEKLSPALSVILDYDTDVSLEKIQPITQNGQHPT
Experimental: Studies were done in cloned hD1 receptors expressed in Ltk cells.
Frozen membranes were thawed and added to assay tubes (10 μg protein/tube) containing a prepared reaction mixture [100 mM Hepes, (pH 7.4), 100 mM NaCl, 4 mM MgCl2, 2 mM EDTA, 500 μM isobutyl methylxanthine (IBMX), 0.01% ascorbic acid, 10 μM pargyline, 2 mM ATP, 5 μM GTP, 20 mM phosphocreatine, 5 units of creatine phosphokinase (CPK), 1 μM propranolol] and selected drugs. The final reaction volume was 100 μL.
Basal cAMP activity was determined by incubation of tissue in the reaction mixture with no drug added. Tubes were assayed in duplicate and, after a 15 min incubation at 30° C., the reaction was stopped by the addition of 500 μL of 0.1 N HCl. Tubes were vortexed briefly, and then spun in a BHG HermLe Z 230 M microcentrifuge for five min at 15,000×g to precipitate particulates.
The concentration of cAMP in each sample was determined with an RIA of acetylated cAMP, modified from that previously described. Iodination of cAMP was performed using a now-published procedure (Brown et al., 2009). […] Antibody-bound radioactivity was separated by the addition of 25 μL of BioMag rabbit, anti-goat IgG (Advanced Magnetics, Cambridge Mass.), followed by vortexing and incubation at 4° C. for 1 h. […] Supernatants were aspirated and radioactivity in the pellet was determined using an LKB Wallac gamma counter (Gaithersburg, Md.). […]

[2] = tested on: non-dopamine receptors (monoamine transporters, serotonin, adrenergic, hH1, muscarinic, opioid, miscellaneous receptors); assay: Affinity at other receptors (10 μM screen of non-dopamine receptors and transporters); details: 10 μM concentration; full dose-response only where >50% inhibition of binding
[3] = molecular target: Cloned human receptors D5 (HEK) (Homo sapiens, UniProt P21918); assay: biochemical
Sequence of Cloned human receptors D5 (HEK) (P21918 whole entry): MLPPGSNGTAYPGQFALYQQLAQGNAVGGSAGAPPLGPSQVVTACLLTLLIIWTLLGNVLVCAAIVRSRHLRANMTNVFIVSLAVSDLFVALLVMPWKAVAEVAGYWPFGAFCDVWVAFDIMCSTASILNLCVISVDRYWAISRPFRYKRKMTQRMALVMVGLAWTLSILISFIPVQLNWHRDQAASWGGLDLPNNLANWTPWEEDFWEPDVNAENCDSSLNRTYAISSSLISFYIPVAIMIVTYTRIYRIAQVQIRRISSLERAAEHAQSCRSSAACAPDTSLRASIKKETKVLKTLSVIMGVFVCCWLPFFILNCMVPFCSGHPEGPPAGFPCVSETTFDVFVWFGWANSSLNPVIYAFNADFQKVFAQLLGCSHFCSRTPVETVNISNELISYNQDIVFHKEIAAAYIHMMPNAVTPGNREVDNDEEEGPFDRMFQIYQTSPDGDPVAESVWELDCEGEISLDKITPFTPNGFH
Experimental: (§1) Binding data from each assay were analyzed separately. Data were normalized by expressing the average dpm at each competitor concentration as a percentage of total binding.

[4] = molecular target: T2, Cloned human receptors D4 (CHO) (Homo sapiens, UniProt P21917); assay: biochemical
T2 sequence (P21917 1-419): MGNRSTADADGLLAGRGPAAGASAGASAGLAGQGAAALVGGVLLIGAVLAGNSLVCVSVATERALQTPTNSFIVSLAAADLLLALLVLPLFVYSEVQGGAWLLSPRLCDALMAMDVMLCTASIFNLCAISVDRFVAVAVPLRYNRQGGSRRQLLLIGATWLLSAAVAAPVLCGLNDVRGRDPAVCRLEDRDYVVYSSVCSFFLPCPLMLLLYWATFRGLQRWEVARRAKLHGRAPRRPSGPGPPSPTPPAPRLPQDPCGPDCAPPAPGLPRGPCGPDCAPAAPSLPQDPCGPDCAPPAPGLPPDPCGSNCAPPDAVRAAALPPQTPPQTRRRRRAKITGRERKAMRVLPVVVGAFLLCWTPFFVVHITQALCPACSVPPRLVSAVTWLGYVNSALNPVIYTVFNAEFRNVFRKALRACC
Experimental: as §1

[5] = molecular target: T3, Cloned human receptors D2L (C-6) (Homo sapiens, UniProt P14416); assay: Binding affinity, cloned human D2L receptor (C-6)
T3 construct: expressed in transfected cells; host or cells: C-6 cells
T3 sequence (P14416 whole entry): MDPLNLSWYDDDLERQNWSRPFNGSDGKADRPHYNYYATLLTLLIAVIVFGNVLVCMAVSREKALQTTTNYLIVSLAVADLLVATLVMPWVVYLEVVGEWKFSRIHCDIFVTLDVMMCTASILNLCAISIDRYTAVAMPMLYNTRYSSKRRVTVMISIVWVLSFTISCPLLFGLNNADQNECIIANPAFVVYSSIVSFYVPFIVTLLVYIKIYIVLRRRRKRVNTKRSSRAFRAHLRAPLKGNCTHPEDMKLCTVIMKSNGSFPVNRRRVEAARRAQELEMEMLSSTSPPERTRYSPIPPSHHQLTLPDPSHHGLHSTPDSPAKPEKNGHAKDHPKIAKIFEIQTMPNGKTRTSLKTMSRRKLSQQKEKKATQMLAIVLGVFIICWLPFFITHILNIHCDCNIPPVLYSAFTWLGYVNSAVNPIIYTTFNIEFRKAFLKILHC
Experimental: as §1

[6] = tested on: unilateral 6-OHDA rat model; assay: Rotation in the unilateral 6-OHDA rat model of Parkinson's disease; format: in vivo
Experimental: Both drugs were administered 1 mg/kg subcutaneously (SC), and the number of rotations measured (i.e., rotations counter clockwise) over time (minutes) using the model first described by
Ungerstedt (Ungerstedt and Arbuthnott, 1970).
In some studies, adult male Sprague Dawley rats (200-250 g) were obtained from Charles River Breeding Laboratories (Raleigh, N.C.) or Harlan Laboratories (Indianapolis, Ind.). Rats were killed by decapitation, and the whole brains removed and chilled briefly in ice-cold saline. Brains were sliced with the aid of a dissecting block, and central striata were then dissected from two coronal sections containing the majority of this region. Tissue was frozen immediately on dry ice and stored at −70° C. until the day of the assay. In other studies, Sprague-Dawley rats weighing between ca. 175 g received unilateral injections of 6-OHDA. They were pretreated with 25 mg/kg desipramine, anesthetized with sodium pentobarbital and placed in a stereotaxic apparatus. Thirty gauge needles were lowered into the right aspects of the substantia nigra at Interaural zero +3.2 mm; lateral −2.0 mm; and dorsoventral −7.7 mm. Four μl of 0.1% ascorbic acid in sterile saline containing 8 μg of 6-OHDA were infused in each side over a period of 20 minutes using 10 μl Hamilton syringes and a Sage syringe pump. The needles were left in place two minutes after infusion to minimize withdrawal of the 6-OHDA solution with the needles. The small burr holes in the skull were plugged with bone wax, and the wound sutured. Post-operative care of these rats included observation, sweet food supplements, and gastric intubation during the aphagic period following lesion. Fourteen or more days after the lesion, rats were challenged with 1 mg/kg apomorphine, and rotations measured. […] The rats were then allowed to “wash-out” for a week between drug trials.

[7] = molecular target: T4, Cloned human receptors D1 (C-6); assay: Binding affinity, cloned human D1 receptor (C-6)
T4 construct: C-6 glioma cells expressing the rhesus macaque D1 A receptor, (C-6-m D1 A)
Experimental: Cells were maintained in a humidified incubator at 37° C. with 5% CO2.

[8] = molecular target: T5, Cloned human receptors D3 (CHO) (Homo sapiens, UniProt P35462); assay: Binding affinity, cloned human D3 receptor (CHO)
T5 construct: expressed in transfected cells; host or cells: CHO cells
T5 sequence (P35462 whole entry): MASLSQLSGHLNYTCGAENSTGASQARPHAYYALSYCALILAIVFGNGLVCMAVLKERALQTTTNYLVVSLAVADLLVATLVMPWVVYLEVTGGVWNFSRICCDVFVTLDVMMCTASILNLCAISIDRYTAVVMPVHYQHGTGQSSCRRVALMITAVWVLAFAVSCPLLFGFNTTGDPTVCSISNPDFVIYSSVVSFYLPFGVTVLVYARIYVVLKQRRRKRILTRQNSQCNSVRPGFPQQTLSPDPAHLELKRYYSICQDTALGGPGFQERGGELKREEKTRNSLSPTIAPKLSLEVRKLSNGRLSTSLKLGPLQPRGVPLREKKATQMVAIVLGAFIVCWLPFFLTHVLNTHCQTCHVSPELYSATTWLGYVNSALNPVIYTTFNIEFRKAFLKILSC
Experimental: as §1

| Ki ([7]; C-6 cells; read-out: K0.5, Cloned human receptors D1 (C-6)) | Ki ([8]; CHO cells, read-out: K0.5, Cloned human receptors D3 (CHO)) | SMILES | agonist intrinsic activity and potency (adenylate cyclase, percentage of activation caused by 100 μM dopamine) [1] | affinity for non-dopamine receptors [2] | Ki [3] | Ki [4] | Ki [5] | agonist effects in presence of D1 antagonist SCH23390 ([6]; SCH23390 0.3 mg/kg) | rotation in presence of D2 antagonist haloperidol ([6]; haloperidol 0.1 mg/kg) | duration of activity (rotations over time) ([6]; single subcutaneous injection of 1 mg/kg, FIG. 1) | Ki ([7]; read-out: K0.5, Cloned human receptors D1 (C-6); C-6 cells) | Ki [8] |
| --- | --- | --- | --- | --- | --- | --- | --- | --- | --- | --- | --- | --- |
|  |  | Cc1ccc2c(c1)[C@@H]1c3cc(O)c(O)cc3CC[C@H]1NC2 (racemic) [Compound 1, Trans-2-methyl-10,11-dihydroxy-5,6,6a,7,8,12b-hexahydrobenzo[a]phenanthridine hydrochloride] | full agonist of similar intrinsic activity and potency when compared to dihydrexidine | little affinity for most receptors | 7 nM | 325 nM | 525 nM | completely blocked | not blocked | activity lasting for nearly ten hours | 8 nM | 95 nM |
| 2.2 nM | 15 nM | Oc1cc2c(cc1O)[C@@H]1c3ccccc3CN[C@H]1CC2 (relative stereo) [dihydrexidine, trans-10,11-dihydroxy-5,6,6a,7,8,12b-hexahydrobenzo[a]phenanthridine, reference compound] |  |  |  |  |  |  |  |  |  |  |
